Reference: ChEMBL document CHEMBL4507265 (2021)

Columns and labels:
[1] = system: Receptor-type tyrosine-protein kinase FLT3 (Homo sapiens), P36888 [D835H]; details: Compound concentration 1000.0 nM
[2] = target: Tyrosine-protein kinase ITK/TSK (Homo sapiens) (UniProt Q08881); details: Compound concentration 1000.0 nM
[3] = target: Dual specificity tyrosine-phosphorylation-regulated kinase 2 (Homo sapiens) (UniProt Q92630); details: Compound concentration 1000.0 nM
[4] = target: Serine/threonine-protein kinase tousled-like 1 (Homo sapiens) (UniProt Q9UKI8); details: Compound concentration 1000.0 nM
[5] = target: Interleukin-1 receptor-associated kinase 3 (Homo sapiens) (UniProt Q9Y616); details: Compound concentration 1000.0 nM
[6] = target: Mitogen-activated protein kinase kinase kinase 7 (Homo sapiens) (UniProt O43318); details: Compound concentration 1000.0 nM
[7] = target: MAP kinase-interacting serine/threonine-protein kinase 2 (Homo sapiens) (UniProt Q9HBH9); details: Compound concentration 1000.0 nM
[8] = target: Ribosomal protein S6 kinase alpha-4 (Homo sapiens) (UniProt O75676); details: Compound concentration 1000.0 nM
[9] = target: Serine/threonine-protein kinase PAK 4 (Homo sapiens) (UniProt O96013); details: Compound concentration 1000.0 nM
[10] = target: Serine/threonine-protein kinase DCLK3 (Homo sapiens) (UniProt Q9C098); details: Compound concentration 1000.0 nM
[11] = target: Tyrosine-protein kinase BTK (Homo sapiens) (UniProt Q06187); details: Compound concentration 1000.0 nM
[12] = target: Tyrosine-protein kinase ZAP-70 (Homo sapiens) (UniProt P43403); details: Compound concentration 1000.0 nM
[13] = target: Phosphatidylinositol 3-kinase catalytic subunit type 3 (Homo sapiens) (UniProt Q8NEB9); details: Compound concentration 1000.0 nM
[14] = target: Delta-type opioid receptor (Homo sapiens) (UniProt P41143); details: Compound concentration 10.0 uM
[15] = target: Cyclin-dependent kinase 18 (Homo sapiens) (UniProt Q07002); details: Compound concentration 1000.0 nM
[16] = target: Serine/threonine-protein kinase TNNI3K (Homo sapiens) (UniProt Q59H18); details: Compound concentration 1000.0 nM
[17] = target: Serine/threonine-protein kinase TAO1 (Homo sapiens) (UniProt Q7L7X3); details: Compound concentration 1000.0 nM
[18] = target: Serine/threonine-protein kinase BRSK2 (Homo sapiens) (UniProt Q8IWQ3); details: Compound concentration 1000.0 nM
[19] = target: Mitogen-activated protein kinase kinase kinase kinase 2 (Homo sapiens) (UniProt Q12851); details: Compound concentration 1000.0 nM
[20] = target: Serine/threonine-protein kinase SIK1 (Homo sapiens) (UniProt P57059); details: Compound concentration 1000.0 nM
[21] = target: Ribosomal protein S6 kinase alpha-1 (Homo sapiens) (UniProt Q15418); details: Compound concentration 1000.0 nM
[22] = target: T1, Alpha-1D adrenergic receptor (Homo sapiens) (UniProt P25100); details: Compound concentration 10.0 uM
T1 sequence (whole entry): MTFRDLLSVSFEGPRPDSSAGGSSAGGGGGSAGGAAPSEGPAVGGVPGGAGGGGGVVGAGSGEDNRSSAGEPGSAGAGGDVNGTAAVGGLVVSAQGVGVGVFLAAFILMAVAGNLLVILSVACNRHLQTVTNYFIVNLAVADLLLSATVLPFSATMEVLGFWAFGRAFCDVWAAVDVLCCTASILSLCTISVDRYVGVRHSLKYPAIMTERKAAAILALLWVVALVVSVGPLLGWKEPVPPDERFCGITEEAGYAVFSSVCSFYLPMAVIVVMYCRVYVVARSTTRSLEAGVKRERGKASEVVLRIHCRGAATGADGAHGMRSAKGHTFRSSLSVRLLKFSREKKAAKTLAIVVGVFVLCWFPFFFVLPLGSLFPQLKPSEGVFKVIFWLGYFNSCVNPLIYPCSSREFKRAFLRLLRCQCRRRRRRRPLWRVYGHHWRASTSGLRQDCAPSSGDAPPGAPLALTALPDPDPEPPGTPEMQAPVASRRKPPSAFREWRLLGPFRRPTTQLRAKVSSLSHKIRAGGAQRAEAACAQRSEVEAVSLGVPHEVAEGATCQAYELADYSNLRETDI

[23] = target: Dual specificity testis-specific protein kinase 1 (Homo sapiens) (UniProt Q15569); details: Compound concentration 1000.0 nM
[24] = target: Sigma intracellular receptor 2 (Homo sapiens, UniProt Q5BJF2); details: Compound concentration 10.0 uM
[25] = target: Ephrin type-A receptor 7 (Homo sapiens) (UniProt Q15375); details: Compound concentration 1000.0 nM
[26] = target: Serine/threonine-protein kinase 17A (Homo sapiens) (UniProt Q9UEE5); details: Compound concentration 1000.0 nM
[27] = system: Serine/threonine-protein kinase B-raf (Homo sapiens), P15056 [V600E]; details: Compound concentration 1000.0 nM
[28] = target: Serine/threonine-protein kinase 36 (Homo sapiens) (UniProt Q9NRP7); details: Compound concentration 1000.0 nM
[29] = target: Serine/threonine-protein kinase 32C (Homo sapiens) (UniProt Q86UX6); details: Compound concentration 1000.0 nM
[30] = system: Phosphatidylinositol 4,5-bisphosphate 3-kinase catalytic subunit alpha isoform (Homo sapiens), P42336 [E542K]; details: Compound concentration 1000.0 nM
[31] = target: Tyrosine-protein kinase Tec (Homo sapiens) (UniProt P42680); details: Compound concentration 1000.0 nM
[32] = target: Myosin light chain kinase 2, skeletal/cardiac muscle (Homo sapiens) (UniProt Q9H1R3); details: Compound concentration 1000.0 nM
[33] = target: Calcium/calmodulin-dependent protein kinase type 1 (Homo sapiens) (UniProt Q14012); details: Compound concentration 1000.0 nM
[34] = target: Serine/threonine-protein kinase RIO3 (Homo sapiens) (UniProt O14730); details: Compound concentration 1000.0 nM
[35] = target: 5'-AMP-activated protein kinase catalytic subunit alpha-1 (Homo sapiens) (UniProt Q13131); details: Compound concentration 1000.0 nM
[36] = target: Tyrosine-protein kinase SYK (Homo sapiens) (UniProt P43405); details: Compound concentration 1000.0 nM
[37] = target: Muscarinic acetylcholine receptor M4 (Homo sapiens) (UniProt P08173); details: Compound concentration 10.0 uM

Chain of Mitogen-activated protein kinase kinase kinase 7 (Homo sapiens) (O43318 whole entry): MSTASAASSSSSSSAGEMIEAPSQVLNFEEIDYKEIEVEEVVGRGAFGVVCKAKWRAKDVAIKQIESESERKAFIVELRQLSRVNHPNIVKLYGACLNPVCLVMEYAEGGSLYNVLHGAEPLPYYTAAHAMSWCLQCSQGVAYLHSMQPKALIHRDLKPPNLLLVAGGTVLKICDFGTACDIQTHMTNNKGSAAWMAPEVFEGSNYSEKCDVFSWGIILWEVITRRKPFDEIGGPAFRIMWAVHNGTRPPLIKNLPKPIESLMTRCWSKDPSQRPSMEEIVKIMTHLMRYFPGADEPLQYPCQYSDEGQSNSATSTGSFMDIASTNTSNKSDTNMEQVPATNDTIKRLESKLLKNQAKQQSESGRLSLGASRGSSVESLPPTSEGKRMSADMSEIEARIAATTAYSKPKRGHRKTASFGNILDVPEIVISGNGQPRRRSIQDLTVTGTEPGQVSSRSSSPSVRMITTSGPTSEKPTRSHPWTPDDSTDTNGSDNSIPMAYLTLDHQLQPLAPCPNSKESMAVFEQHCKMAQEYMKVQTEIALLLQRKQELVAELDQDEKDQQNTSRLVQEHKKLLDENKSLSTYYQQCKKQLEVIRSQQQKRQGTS
Chain of Ribosomal protein S6 kinase alpha-4 (Homo sapiens) (O75676 whole entry, looked up): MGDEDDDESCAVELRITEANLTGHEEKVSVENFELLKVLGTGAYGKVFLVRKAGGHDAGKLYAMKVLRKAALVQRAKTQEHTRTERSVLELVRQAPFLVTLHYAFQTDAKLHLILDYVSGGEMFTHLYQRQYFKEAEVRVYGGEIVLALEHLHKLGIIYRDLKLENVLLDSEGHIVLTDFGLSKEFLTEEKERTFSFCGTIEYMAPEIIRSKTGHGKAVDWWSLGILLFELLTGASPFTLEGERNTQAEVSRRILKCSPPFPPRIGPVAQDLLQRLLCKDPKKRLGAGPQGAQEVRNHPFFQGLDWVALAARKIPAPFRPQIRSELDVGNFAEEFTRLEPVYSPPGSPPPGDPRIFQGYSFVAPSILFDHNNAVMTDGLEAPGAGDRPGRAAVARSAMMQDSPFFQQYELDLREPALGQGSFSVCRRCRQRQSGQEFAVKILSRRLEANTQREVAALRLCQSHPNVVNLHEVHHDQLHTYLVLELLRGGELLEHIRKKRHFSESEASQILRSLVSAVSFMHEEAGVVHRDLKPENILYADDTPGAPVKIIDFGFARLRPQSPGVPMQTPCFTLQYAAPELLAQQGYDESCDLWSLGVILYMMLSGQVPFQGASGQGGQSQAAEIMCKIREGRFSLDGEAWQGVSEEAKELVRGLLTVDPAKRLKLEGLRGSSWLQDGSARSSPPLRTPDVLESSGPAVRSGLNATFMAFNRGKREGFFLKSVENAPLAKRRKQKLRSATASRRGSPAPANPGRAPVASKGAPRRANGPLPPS
Chain of Ribosomal protein S6 kinase alpha-1 (Homo sapiens) (Q15418 whole entry): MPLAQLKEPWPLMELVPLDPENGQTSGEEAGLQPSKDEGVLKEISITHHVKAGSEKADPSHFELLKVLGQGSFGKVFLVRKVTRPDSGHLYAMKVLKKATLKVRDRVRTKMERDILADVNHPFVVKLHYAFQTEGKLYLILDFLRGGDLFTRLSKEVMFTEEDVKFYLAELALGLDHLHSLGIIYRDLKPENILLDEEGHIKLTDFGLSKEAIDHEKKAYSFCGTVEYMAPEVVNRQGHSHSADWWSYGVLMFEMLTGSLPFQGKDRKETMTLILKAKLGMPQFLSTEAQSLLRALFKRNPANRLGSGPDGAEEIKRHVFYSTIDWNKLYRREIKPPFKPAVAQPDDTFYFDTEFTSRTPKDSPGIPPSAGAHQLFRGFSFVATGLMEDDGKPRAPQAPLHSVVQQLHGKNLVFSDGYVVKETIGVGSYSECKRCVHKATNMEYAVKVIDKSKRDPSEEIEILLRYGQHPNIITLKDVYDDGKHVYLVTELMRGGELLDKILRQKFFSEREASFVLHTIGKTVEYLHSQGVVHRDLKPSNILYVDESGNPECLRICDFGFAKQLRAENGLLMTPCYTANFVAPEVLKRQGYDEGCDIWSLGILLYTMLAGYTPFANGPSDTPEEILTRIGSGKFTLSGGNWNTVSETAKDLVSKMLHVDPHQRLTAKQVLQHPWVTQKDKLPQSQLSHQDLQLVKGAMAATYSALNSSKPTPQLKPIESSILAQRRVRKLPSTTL
Chain of Serine/threonine-protein kinase 36 (Homo sapiens) (Q9NRP7 whole entry): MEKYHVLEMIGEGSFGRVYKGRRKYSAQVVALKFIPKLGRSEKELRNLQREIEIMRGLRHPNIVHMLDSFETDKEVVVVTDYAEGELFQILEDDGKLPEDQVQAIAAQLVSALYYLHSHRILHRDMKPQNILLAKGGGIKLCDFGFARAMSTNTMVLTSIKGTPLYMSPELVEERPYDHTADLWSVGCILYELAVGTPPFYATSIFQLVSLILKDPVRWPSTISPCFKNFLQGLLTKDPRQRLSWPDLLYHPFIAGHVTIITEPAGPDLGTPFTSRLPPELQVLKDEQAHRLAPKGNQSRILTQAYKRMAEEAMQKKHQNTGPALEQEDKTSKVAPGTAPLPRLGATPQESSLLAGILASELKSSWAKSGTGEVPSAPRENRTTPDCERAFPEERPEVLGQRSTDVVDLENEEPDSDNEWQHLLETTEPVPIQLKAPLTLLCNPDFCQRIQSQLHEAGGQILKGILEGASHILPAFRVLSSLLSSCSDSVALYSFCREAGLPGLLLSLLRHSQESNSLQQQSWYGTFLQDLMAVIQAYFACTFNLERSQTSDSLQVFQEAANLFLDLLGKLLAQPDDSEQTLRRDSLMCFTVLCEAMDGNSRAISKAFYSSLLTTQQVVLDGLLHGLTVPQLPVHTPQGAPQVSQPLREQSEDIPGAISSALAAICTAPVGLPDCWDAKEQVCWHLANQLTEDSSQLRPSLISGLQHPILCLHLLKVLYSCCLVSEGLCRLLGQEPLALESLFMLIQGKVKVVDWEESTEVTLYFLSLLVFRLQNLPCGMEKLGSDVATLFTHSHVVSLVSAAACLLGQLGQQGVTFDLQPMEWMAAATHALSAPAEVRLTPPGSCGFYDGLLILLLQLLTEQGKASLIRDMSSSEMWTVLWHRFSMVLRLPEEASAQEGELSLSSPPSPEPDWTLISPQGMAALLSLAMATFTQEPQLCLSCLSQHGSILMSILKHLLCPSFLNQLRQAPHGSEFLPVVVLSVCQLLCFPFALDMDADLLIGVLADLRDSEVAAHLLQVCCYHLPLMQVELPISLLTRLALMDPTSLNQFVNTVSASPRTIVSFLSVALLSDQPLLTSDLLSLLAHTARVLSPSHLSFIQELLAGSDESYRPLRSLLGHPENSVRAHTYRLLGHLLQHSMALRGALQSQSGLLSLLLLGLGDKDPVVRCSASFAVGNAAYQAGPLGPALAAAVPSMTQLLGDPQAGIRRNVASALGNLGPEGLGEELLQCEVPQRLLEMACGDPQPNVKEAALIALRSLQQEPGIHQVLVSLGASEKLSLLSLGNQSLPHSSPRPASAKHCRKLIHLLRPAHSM
Chain of Serine/threonine-protein kinase TNNI3K (Homo sapiens) (Q59H18 whole entry): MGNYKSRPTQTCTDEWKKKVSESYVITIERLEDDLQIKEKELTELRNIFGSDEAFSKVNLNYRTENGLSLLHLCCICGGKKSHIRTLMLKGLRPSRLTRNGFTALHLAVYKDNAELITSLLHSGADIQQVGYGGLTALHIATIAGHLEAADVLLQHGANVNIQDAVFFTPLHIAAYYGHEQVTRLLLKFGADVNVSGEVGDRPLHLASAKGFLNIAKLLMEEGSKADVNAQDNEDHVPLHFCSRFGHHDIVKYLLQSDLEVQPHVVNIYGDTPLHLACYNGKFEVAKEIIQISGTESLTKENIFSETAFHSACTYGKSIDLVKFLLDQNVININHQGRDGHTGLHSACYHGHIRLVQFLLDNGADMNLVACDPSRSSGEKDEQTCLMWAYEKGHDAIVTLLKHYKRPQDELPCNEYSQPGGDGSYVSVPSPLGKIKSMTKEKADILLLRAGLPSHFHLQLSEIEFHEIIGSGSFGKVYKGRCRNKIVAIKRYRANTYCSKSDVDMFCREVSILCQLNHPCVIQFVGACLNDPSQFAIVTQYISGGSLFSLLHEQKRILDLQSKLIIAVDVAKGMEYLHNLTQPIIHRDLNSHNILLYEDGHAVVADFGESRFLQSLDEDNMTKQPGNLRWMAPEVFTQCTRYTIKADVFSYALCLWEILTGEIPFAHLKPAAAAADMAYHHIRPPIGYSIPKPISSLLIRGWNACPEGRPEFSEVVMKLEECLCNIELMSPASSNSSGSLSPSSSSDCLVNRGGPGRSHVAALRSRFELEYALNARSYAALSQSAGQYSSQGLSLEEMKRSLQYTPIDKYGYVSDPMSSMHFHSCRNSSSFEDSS
Chain of 5'-AMP-activated protein kinase catalytic subunit alpha-1 (Homo sapiens) (Q13131 whole entry, looked up): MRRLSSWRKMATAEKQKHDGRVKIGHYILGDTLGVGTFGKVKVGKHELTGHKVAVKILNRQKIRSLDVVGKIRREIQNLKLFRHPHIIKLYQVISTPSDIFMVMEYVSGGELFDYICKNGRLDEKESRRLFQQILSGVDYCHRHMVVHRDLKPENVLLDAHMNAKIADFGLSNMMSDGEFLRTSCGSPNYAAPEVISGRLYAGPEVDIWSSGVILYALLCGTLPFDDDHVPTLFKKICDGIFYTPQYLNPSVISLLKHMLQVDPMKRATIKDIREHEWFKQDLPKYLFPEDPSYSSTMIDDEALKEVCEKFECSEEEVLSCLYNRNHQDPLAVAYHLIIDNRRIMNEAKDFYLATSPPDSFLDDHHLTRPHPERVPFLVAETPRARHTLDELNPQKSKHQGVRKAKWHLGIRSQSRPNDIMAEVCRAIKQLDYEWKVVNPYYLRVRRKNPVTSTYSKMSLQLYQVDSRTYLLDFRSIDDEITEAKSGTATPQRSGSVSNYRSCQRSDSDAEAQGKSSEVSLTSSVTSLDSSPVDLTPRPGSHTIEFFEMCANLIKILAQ
Chain of Sigma intracellular receptor 2 (Q5BJF2 whole entry): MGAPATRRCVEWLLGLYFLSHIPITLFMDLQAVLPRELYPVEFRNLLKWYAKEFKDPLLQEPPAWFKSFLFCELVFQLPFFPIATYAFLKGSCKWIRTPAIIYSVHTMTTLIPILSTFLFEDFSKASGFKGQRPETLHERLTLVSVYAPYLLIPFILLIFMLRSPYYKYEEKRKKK

Structure (SMILES): NS(=O)(=O)c1cc(NC(=O)C2(c3ccccc3Cl)CC2)ccc1Oc1cccc(Cl)c1 [BAY-207]
- residual activity [1]: 47%
- residual activity [2]: 79%
- residual activity [3]: 81%
- residual activity [4]: 99%
- residual activity [5]: 75%
- residual activity [6]: 98%
- residual activity [7]: 100%
- residual activity [8]: 70%
- residual activity [9]: 74%
- residual activity [10]: 56%
- residual activity [11]: 88%
- residual activity [12]: 100%
- residual activity [13]: 89%
- inhibition [14]: 41.6%
- residual activity [15]: 69%
- residual activity [16]: 72%
- residual activity [17]: 91%
- residual activity [18]: 87%
- residual activity [19]: 100%
- residual activity [20]: 71%
- residual activity [21]: 98%
- inhibition [22]: 6.88%
- residual activity [23]: 100%
- inhibition [24]: 82%
- residual activity [25]: 82%
- residual activity [26]: 85%
- residual activity [27]: 74%
- residual activity [28]: 99%
- residual activity [29]: 100%
- residual activity [30]: 80%
- residual activity [31]: 81%
- residual activity [32]: 73%
- residual activity [33]: 100%
- residual activity [34]: 73%
- residual activity [35]: 80%
- residual activity [36]: 70%
- inhibition [37]: -1.95%

Structure (SMILES): NS(=O)(=O)c1cc(NC(=O)Cc2ccccc2)ccc1Oc1cccc(Cl)c1 [BAY-1797]
- residual activity [1]: 98%
- residual activity [2]: 87%
- residual activity [3]: 100%
- residual activity [4]: 99%
- residual activity [5]: 87%
- residual activity [6]: 75%
- residual activity [7]: 86%
- residual activity [8]: 100%
- residual activity [9]: 87%
- residual activity [10]: 92%
- residual activity [11]: 76%
- residual activity [12]: 87%
- residual activity [13]: 100%
- inhibition [14]: 20.5%
- residual activity [15]: 100%
- residual activity [16]: 91%
- residual activity [17]: 93%
- residual activity [18]: 91%
- residual activity [19]: 84%
- residual activity [20]: 93%
- residual activity [21]: 91%
- inhibition [22]: 2.32%
- residual activity [23]: 100%
- inhibition [24]: 59.5%
- residual activity [25]: 92%
- residual activity [26]: 94%
- residual activity [27]: 89%
- residual activity [28]: 100%
- residual activity [29]: 100%
- residual activity [30]: 87%
- residual activity [31]: 96%
- residual activity [32]: 81%
- residual activity [33]: 90%
- residual activity [34]: 73%
- residual activity [35]: 71%
- residual activity [36]: 66%
- inhibition [37]: 10.2%
